Assay results from PubChem BioAssay AID977614 (Broad Institute, 2014).
Active and inactive are the calls of the source.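 How the source made its calls: active means parasite count per well reduced by over 3 SD from the mean, with host cell number above 80% of untreated; inactive means the rest.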

System: L. donovani amastigotes in THP-1 macrophages, DAPI imaging, 72 h
Test: antileishmanial activity in infected macrophages – imaging, THP-1 host macrophages, single concentration (AID 977614);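 further: signal is the parasite per host cell ratio from DAPI stained kinetoplasts and nuclei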

## CCC(=O)N1C[C@@H]2[C@H](c3ccccc31)[C@H](CO)N2C(=O)CC1CC1
  AC50: > 10 µM (inactive)

## COc1ccccc1S(=O)(=O)N(C)C[C@@H]1OCc2cn(nn2)CCCC(=O)N([C@@H](C)CO)C[C@@H]1C
  AC50: > 10 µM (inactive)

## C/C=C/c1ccc([C@H]2[C@@H](CNC(=O)NC(C)C)N(C(=O)C3CC3)[C@H]2CO)cc1
  AC50: > 10 µM (inactive)

## COCCNC[C@H]1[C@H](c2ccccc2)[C@H](CO)N1c1nc(C)c(C)s1
  AC50: > 10 µM (inactive)

## CCCNC(=O)N1[C@@H]2CN(C(=O)Nc3cccc(Cl)c3)c3ccccc3[C@@H]2[C@@H]1CO
  AC50: > 10 µM (inactive)

## CCC(=O)N1[C@H](CO)[C@@H](c2ccccc2)[C@H]1CN(C)C(=O)CN1CCOCC1
  AC50: > 10 µM (inactive)

## C[C@@H]1CN([C@H](C)CO)C(=O)CCCn2cc(nn2)CO[C@H]1CN(C)C(=O)Nc1cccc(C(F)(F)F)c1
  AC50: > 10 µM (inactive)

## O=C(CN1CCOCC1)N(CC1CCC1)C[C@H]1N[C@H](CO)[C@@H]1c1ccccc1
  AC50: > 10 µM (inactive)

## O=C(c1ccncc1)N1C[C@@H]2[C@H](c3ccccc31)[C@H](CO)N2C(=O)CN1CCOCC1
  AC50: > 10 µM (inactive)

## O=S(=O)(c1ccc(F)cc1)N1C[C@H]2[C@@H](c3ccccc31)[C@@H](CO)N2Cc1ccccc1Cl
  AC50: > 10 µM (inactive)

## COc1ccc(CN2[C@H](CO)[C@@H]3c4ccccc4N(C(=O)NC(C)C)C[C@@H]32)cc1
  AC50: > 10 µM (inactive)

## O=C(Nc1ccc(F)cc1)N1C[C@H]2[C@@H](c3ccccc31)[C@@H](CO)N2C(=O)c1ccncc1
  AC50: > 10 µM (inactive)

## COc1ccc(CN2[C@H](CO)[C@H]3c4ccccc4NC[C@H]32)cc1
  AC50: > 10 µM (inactive)

## CN(C[C@@H]1N[C@H](CO)[C@@H]1c1ccc(C#CCC2CCCC2)cc1)S(C)(=O)=O
  AC50: > 10 µM (inactive)

## Cc1noc(C)c1S(=O)(=O)N(C)C[C@@H]1OCc2cnnn2CCCC(=O)N([C@H](C)CO)C[C@@H]1C
  AC50: > 10 µM (inactive)

## COc1cccc(NC(=O)N2[C@@H](CO)[C@H](c3ccccc3)[C@@H]2CNCC(C)C)c1
  AC50: > 10 µM (inactive)

## COc1cccc(C(=O)N2C[C@H]3[C@@H](c4ccccc42)[C@H](CO)N3C(=O)c2cccc(F)c2)c1
  AC50: > 10 µM (inactive)

## C[C@@H]1CN([C@H](C)CO)C(=O)CCCn2cc(nn2)CO[C@H]1CN(C)C(=O)NC1CCCCC1
  AC50: > 10 µM (inactive)

## CCN(C[C@H]1[C@H](c2ccccc2)[C@@H](CO)N1S(C)(=O)=O)C(=O)C1CCCC1
  AC50: > 10 µM (inactive)

## CC(=O)N1[C@H](CO)[C@H](c2ccccc2)[C@@H]1CN(CC(C)C)C(=O)c1ccccn1
  AC50: > 10 µM (inactive)

## C[C@H]1CN([C@@H](C)CO)C(=O)CCCn2nncc2CO[C@@H]1CN(C)Cc1cccc(C(F)(F)F)c1
  AC50: > 10 µM (inactive)

## C[C@H](CO)N1C[C@H](C)[C@H](CN(C)C(=O)Nc2cccc(Oc3ccccn3)c2)OCc2cnnn2CCCC1=O
  AC50: > 10 µM (inactive)

## O=S(=O)(c1ccccc1)N1C[C@H]2[C@@H](c3ccccc31)[C@@H](CO)N2Cc1ccccn1
  AC50: > 10 µM (inactive)

## O=C(NC[C@@H]1[C@@H](c2ccccc2)[C@H](CO)N1Cc1ccccn1)C1CCCC1
  AC50: > 10 µM (inactive)

## CN1[C@H](CO)[C@@H]2c3ccccc3N(C(=O)C3CCCCC3)C[C@@H]21
  AC50: > 10 µM (inactive)

## COc1ccc(C(=O)N2C[C@@H]3[C@H](c4ccccc42)[C@@H](CO)N3Cc2ccccc2Cl)cc1
  AC50: > 10 µM (inactive)

## C[C@@H]1CN([C@@H](C)CO)C(=O)CCCn2nncc2CO[C@H]1CN(C)C(=O)Oc1cccc2ccccc12
  AC50: > 10 µM (inactive)

## O=C(Nc1ccc(F)cc1)N1[C@H](CO)[C@H]2c3ccccc3NC[C@H]21
  AC50: > 10 µM (inactive)

## C[C@H]1CN([C@@H](C)CO)C(=O)CCCn2nncc2CO[C@@H]1CN(C)S(=O)(=O)c1cn(C)cn1
  AC50: > 10 µM (inactive)

## CC(C)NC(=O)N1[C@H](CNC(=O)CN(C)C)[C@H](c2ccccc2)[C@@H]1CO
  AC50: > 10 µM (inactive)
